Here are results for one molecule from patent US9206190B2 (priority 2008, dated 2015).

The test system of series [1] is rats. The following applies: rat, in vivo.
Series [2] concerns rats. The following applies: rat, in vivo. This is another data set of the same source.

Structures are written as SMILES.

On to `CC(C)C[C@H](CN)CC(=O)O` [Pregabalin], for which, in the series with rats [1], the “effect on left and right paw withdrawal latencies compared to vehicle control” value is on record as “failed to have a significant effect”. The sedative clinical symptoms entry in the series on rats [2] is given as “dose-dependant increase in the level of sedative clinical symptoms”.
